Measurements reported in US10975068B2, “6-aminopyridin-3-yl thiazoles as modulators of RORγT” (Janssen Pharmaceutica NV, priority 2016, dated 2021).
Where two headings read alike, the source gives them in different places.

Key:
[1] = target: human RORγt ligand binding domain (RORγt LBD) (Homo sapiens (Human), UniProt P51449); assay: RORγt ThermoFluor® assay (thermal shift binding); conditions: read-out: ThermoFluor® Assay, Kd
Method in brief: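 Binding was inferred from thermal stabilisation (ΔTm) of the E. coli-expressed RORγt LBD (0.065 mg/mL), monitored by 1,8-ANS (60 μM) emission at 500 nm during a 1 °C/min ramp. Buffer was Hepes 100 mM pH 7.0 with NaCl, GSH and Tween-20.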

full-length human RORγt = full-length human RORγt (Homo sapiens (Human), UniProt P51449); assay: RORγt (full-length human) reporter assay, Conditions A; type: cell-based; conditions: for IC50: read-out: RORγt (FL) Reporter Assay A, IC50; for inhibition at 6 µM: read-out: RORγt (FL) Reporter Assay A, % inhibition @ 6 μM; for RORγt (FL) Reporter Assay A, % inhibition (value marked **): marked **: footnote not shown
Sequence of full-length human RORγt (P51449 other isoform, or with tags, fused parts or gaps): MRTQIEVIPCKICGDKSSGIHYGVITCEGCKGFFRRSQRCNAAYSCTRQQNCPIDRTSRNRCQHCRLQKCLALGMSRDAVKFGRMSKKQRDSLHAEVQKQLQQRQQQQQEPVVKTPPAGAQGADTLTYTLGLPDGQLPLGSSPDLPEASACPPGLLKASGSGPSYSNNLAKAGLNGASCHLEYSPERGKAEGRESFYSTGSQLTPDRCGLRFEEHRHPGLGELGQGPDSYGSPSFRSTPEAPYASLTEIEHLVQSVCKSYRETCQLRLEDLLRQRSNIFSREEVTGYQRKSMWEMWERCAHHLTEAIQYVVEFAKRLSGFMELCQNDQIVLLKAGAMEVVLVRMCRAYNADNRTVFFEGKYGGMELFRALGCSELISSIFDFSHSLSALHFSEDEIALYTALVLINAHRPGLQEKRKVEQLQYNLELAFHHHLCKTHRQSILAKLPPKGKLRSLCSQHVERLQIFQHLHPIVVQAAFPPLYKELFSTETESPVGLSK
Excerpt: RORγt (Full-Length Human) Reporter Assay:
Cells used in this assay were transiently co-transfected with three different plasmids, one expressing the GAL4-DNA binding domain (DBD)-RORγt fusion protein under control of a CMV promoter (NH2-Gal4-DBD:RORC-COOH in pCMV-BD, Stratagene #211342), and two reporter plasmids—the firefly luciferase reporter under control of a GAL4 promoter (pFR-Luc 2×GAL4) and Renilla luciferase reporter under control of CMV promoter (pRL-CMV, Promega # E2261). The full-length coding sequence was used for human RORγt, i.e., nucleotides 142-1635 of human RORγt, transcript variant 2, NCBI Accession: NM_001001523.1 (SEQ ID NO:1). HEK293T cells were plated at 35000 per well in 96-well plate in medium of MEM with 8.6% FBS. After 18-22 hours incubation, the transfection was carried out by using a PEI solution with 170.5 ng total DNA/well (50 ng pCMV-BD-ROR plus 20 ng of pFR-Luc reporter and 0.5 ng of pRL-CMV reporter plus 100 ng Carrier DNA (Clontech #630440) for each well). 4-6 hours after transfection, cells were treated with compounds for overnight in the medium with final concentration of FBS 1.1% and DMSO 0.1%. After overnight (16 to 20 hours) incubation, media were removed and cells were lysed with 20 μL 1× Passive Lysis Buffer (Promega) for 10-15 minutes. Luminescence was measured using a BMG LUMIstar OPTIMA plate reader, after addition of 75 μL/well firefly luciferase buffer, followed by 75 μL/well Renilla luciferase buffer. To calculate the effect of compounds on RORγt activity, firefly values were normalized against values of DMSO only and values of reference compound at saturating concentration, then further normalized against Renilla signals. IC50s were generated by plotting final Renilla normalized data against compound concentration and percent inhibition was calculated against DMSO control.

Sequence of human RORγt ligand binding domain (RORγt LBD) (P51449 other isoform, or with tags, fused parts or gaps): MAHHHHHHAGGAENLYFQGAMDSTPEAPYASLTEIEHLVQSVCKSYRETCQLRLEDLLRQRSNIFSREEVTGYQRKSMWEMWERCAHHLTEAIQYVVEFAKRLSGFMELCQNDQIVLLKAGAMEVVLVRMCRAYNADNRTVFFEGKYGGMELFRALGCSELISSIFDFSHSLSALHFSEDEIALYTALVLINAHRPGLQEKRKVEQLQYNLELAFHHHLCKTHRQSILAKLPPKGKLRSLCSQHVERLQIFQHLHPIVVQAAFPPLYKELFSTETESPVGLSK

Compound: CC(C)(O)CNC(=O)c1nc(C(=O)N2CCC(F)CC2)c(-c2cnc(NCCC(F)(F)F)c(C(F)(F)F)c2)s1 [Example 7, 4-(4-Fluoropiperidine-1-carbonyl)-N-(2-hydroxy-2-methylpropyl)-5-(5-(trifluoromethyl)-6-((3,3,3-trifluoropropyl)amino)pyridin-3-yl)thiazole-2-carboxamide]
- Kd [1]: 230 nM
- IC50 (full-length human RORγt; Conditions A): 620 nM
- inhibition at 6 µM (full-length human RORγt; Conditions A): 80%

Compound: CC(C)(O)CNC(=O)c1nc(C(=O)N2CCC(F)CC2)c(-c2cnc(NC3CCC(F)(F)CC3)cc2C(F)(F)F)s1 [Example 18, 5-(6-((4,4-Difluorocyclohexyl)amino)-4-(trifluoromethyl)pyridin-3-yl)-4-(4-fluoropiperidine-1-carbonyl)-N-(2-hydroxy-2-methylpropyl)thiazole-2-carboxamide]
- Kd [1]: 80 nM
- IC50 (full-length human RORγt; Conditions A): 620 nM
- inhibition at 6 µM (full-length human RORγt; Conditions A): 106%

Compound: CC(C)(O)CNC(=O)c1nc(C(=O)N2CCC(F)CC2)c(-c2cnc(NC3CCCCC3)c(C#N)c2)s1 [Example 58, 5-(5-Cyano-6-(cyclohexylamino)pyridin-3-yl)-4-(4-fluoropiperidine-1-carbonyl)-N-(2-hydroxy-2-methylpropyl)thiazole-2-carboxamide]
- Kd [1]: 170 nM
- IC50 (full-length human RORγt; Conditions A): 770 nM
- inhibition at 6 µM (full-length human RORγt; Conditions A): 93%

Compound: CC(C)(O)CNC(=O)c1nc(C(=O)N2CCC(F)CC2)c(-c2cnc(NC3CCCC(F)(F)C3)cc2C(F)(F)F)s1 (centres unmarked) [Example 23, 5-(6-((3,3-Difluorocyclohexyl)amino)-4-(trifluoromethyl)pyridin-3-yl)-4-(4-fluoropiperidine-1-carbonyl)-N-(2-hydroxy-2-methylpropyl)thiazole-2-carboxamide]
- Kd [1]: 30 nM
- IC50 (full-length human RORγt; Conditions A): 79 nM
- inhibition at 6 µM (full-length human RORγt; Conditions A): 96%

Compound: C[C@H]1CC(F)(F)CN1C(=O)c1nc(C(=O)NCC(C)(C)O)sc1-c1cnc(NC2CCCCC2)cc1C(F)(F)F [Example 11, (S)-5-(6-(Cyclohexylamino)-4-(trifluoromethyl)pyridin-3-yl)-4-(4,4-difluoro-2-methylpyrrolidine-1-carbonyl)-N-(2-hydroxy-2-methylpropyl)thiazole-2-carboxamide]
- Kd [1]: 2.6 nM
- RORγt (FL) Reporter Assay A, % inhibition (value marked **) (full-length human RORγt; Conditions A): 107** %
- IC50 (full-length human RORγt; Conditions A): 17 nM

Compound: Cc1cc(NC2CCCCC2)ncc1-c1sc(C(=O)NCC(C)(C)O)nc1C(=O)N1CCC(F)CC1 [Example 67, 5-(6-(Cyclohexylamino)-4-methylpyridin-3-yl)-4-(4-fluoropiperidine-1-carbonyl)-N-(2-hydroxy-2-methylpropyl)thiazole-2-carboxamide]
- Kd [1]: 52 nM
- IC50 (full-length human RORγt; Conditions A): 400 nM
- inhibition at 6 µM (full-length human RORγt; Conditions A): 98%

Compound: CC(C)(O)CCNC(=O)c1nc(C(=O)N2CCC(F)(F)CC2)c(-c2cnc(NC3CCCCC3)cc2C(F)(F)F)s1 [Example 15, 5-(6-(Cyclohexylamino)-4-(trifluoromethyl)pyridin-3-yl)-4-(4,4-difluoropiperidine-1-carbonyl)-N-(3-hydroxy-3-methylbutyl)thiazole-2-carboxamide]
- Kd [1]: 7.5 nM
- RORγt (FL) Reporter Assay A, % inhibition (value marked **) (full-length human RORγt; Conditions A): 105** %
- IC50 (full-length human RORγt; Conditions A): 39 nM

Compound: CC(C)S(=O)(=O)Nc1cc(C(F)(F)F)c(-c2sc(C(=O)NCC(C)(C)O)nc2C(=O)N2CCC(F)CC2)cn1 [Comparator Example 3, 4-(4-Fluoropiperidine-1-carbonyl)-N-(2-hydroxy-2-methylpropyl)-5-(6-((1-methylethyl)sulfonamido)-4-(trifluoromethyl)pyridin-3-yl)thiazole-2-carboxamide, reference compound]
- Kd [1]: 53000 nM
- IC50 (full-length human RORγt; HEK293T cells): > 6000 nM

Compound: CC(C)(O)CNC(=O)c1nc(C(=O)N2CCC(F)CC2)c(-c2cnc(NC3CCCC3)cc2C(F)(F)F)s1 [Example 10, 5-(6-(Cyclopentylamino)-4-(trifluoromethyl)pyridin-3-yl)-4-(4-fluoropiperidine-1-carbonyl)-N-(2-hydroxy-2-methylpropyl)thiazole-2-carboxamide]
- Kd [1]: 8.1 nM
- IC50 (full-length human RORγt; Conditions A): 71 nM
- inhibition at 6 µM (full-length human RORγt; Conditions A): 108%

Compound: CC(C)(O)CNC(=O)c1nc(C(=O)N2CCC(F)CC2)c(-c2cnc(NC3CCCCC3)c(OC(F)F)c2)s1 [Example 62, 5-(6-(Cyclohexylamino)-5-(difluoromethoxy)pyridin-3-yl)-4-(4-fluoropiperidine-1-carbonyl)-N-(2-hydroxy-2-methylpropyl)thiazole-2-carboxamide]
- Kd [1]: 12 nM
- IC50 (full-length human RORγt; Conditions A): 160 nM
- inhibition at 6 µM (full-length human RORγt; Conditions A): 98%

Compound: Cc1c(-c2sc(C(=O)NCC(C)(C)O)nc2C(=O)N2CCC(F)CC2)cnc(NC2CCCCC2)c1F [Example 66, 5-(6-(Cyclohexylamino)-5-fluoro-4-methylpyridin-3-yl)-4-(4-fluoropiperidine-1-carbonyl)-N-(2-hydroxy-2-methylpropyl)thiazole-2-carboxamide]
- Kd [1]: 41 nM
- IC50 (full-length human RORγt; Conditions A): 150 nM
- inhibition at 6 µM (full-length human RORγt; Conditions A): 85%

Compound: CC(C)(O)CNC(=O)c1nc(C(=O)N2CCC(F)CC2)c(-c2cnc(NC3CCC3)cc2C(F)(F)F)s1 [Example 9, 5-(6-(Cyclobutylamino)-4-(trifluoromethyl)pyridin-3-yl)-4-(4-fluoropiperidine-1-carbonyl)-N-(2-hydroxy-2-methylpropyl)thiazole-2-carboxamide]
- Kd [1]: 77 nM
- IC50 (full-length human RORγt; Conditions A): 330 nM
- inhibition at 6 µM (full-length human RORγt; Conditions A): 104%

Compound: C[C@H]1CCCCN1C(=O)c1nc(C(=O)NCC(C)(C)O)sc1-c1cnc(NC2CCCCC2)c(C(F)(F)F)c1 [Example 4, (S)-5-(6-(Cyclohexylamino)-5-(trifluoromethyl)pyridin-3-yl)-N-(2-hydroxy-2-methylpropyl)-4-(2-methylpiperidine-1-carbonyl)thiazole-2-carboxamide]
- Kd [1]: 0.98 nM
- IC50 (full-length human RORγt; Conditions A): 9 nM
- inhibition at 6 µM (full-length human RORγt; Conditions A): 106%

Compound: CC(C)(O)CNC(=O)c1nc(C(=O)N2CCC(F)CC2)c(-c2cnc(NC3CCCCC3)c(C(F)F)c2)s1 [Example 6, 5-(6-(Cyclohexylamino)-5-(difluoromethyl)pyridin-3-yl)-4-(4-fluoropiperidine-1-carbonyl)-N-(2-hydroxy-2-methylpropyl)thiazole-2-carboxamide]
- Kd [1]: ~10 nM
- IC50 (full-length human RORγt; Conditions A): 160 nM
- inhibition at 6 µM (full-length human RORγt; Conditions A): 110%

Compound: CC(C)(O)CNC(=O)c1nc(C(=O)N2CCC(F)CC2)c(-c2cnc(NC3CCCCC3)c(C(F)(F)F)c2)s1 [Example 1, 5-(6-(Cyclohexylamino)-5-(trifluoromethyl)pyridin-3-yl)-4-(4-fluoropiperidine-1-carbonyl)-N-(2-hydroxy-2-methylpropyl)thiazole-2-carboxamide]
- Kd [1]: 35 nM
- RORγt (FL) Reporter Assay A, % inhibition (value marked **) (full-length human RORγt; Conditions A): 100** %
- IC50 (full-length human RORγt; Conditions A): 79 nM

Compound: C[C@H]1CCCCN1C(=O)c1nc(C(=O)NCC(C)(C)O)sc1-c1cnc(NC2CCCCC2)cc1C(F)(F)F [Example 5, (S)-5-(6-(Cyclohexylamino)-4-(trifluoromethyl)pyridin-3-yl)-N-(2-hydroxy-2-methylpropyl)-4-(2-methylpiperidine-1-carbonyl)thiazole-2-carboxamide]
- Kd [1]: 0.25 nM
- IC50 (full-length human RORγt; Conditions A): 9 nM
- inhibition at 6 µM (full-length human RORγt; Conditions A): 104%

Compound: C[C@H]1CCCCN1C(=O)c1nc(C(=O)NC2CCS(=O)(=O)CC2)sc1-c1cnc(NC2CCCCC2)cc1C(F)(F)F [Example 17, (S)-5-(6-(Cyclohexylamino)-4-(trifluoromethyl)pyridin-3-yl)-N-(1,1-dioxidotetrahydro-2H-thiopyran-4-yl)-4-(2-methylpiperidine-1-carbonyl)thiazole-2-carboxamide]
- Kd [1]: 0.15 nM
- RORγt (FL) Reporter Assay A, % inhibition (value marked **) (full-length human RORγt; Conditions A): 95** %
- IC50 (full-length human RORγt; Conditions A): 9 nM

Compound: CCc1cc(NC2CCCCC2)ncc1-c1sc(C(=O)NCC(C)(C)O)nc1C(=O)N1CCC(F)CC1 [Example 70, 5-(6-(cyclohexylamino)-4-ethylpyridin-3-yl)-4-(4-fluoropiperidine-1-carbonyl)-N-(2-hydroxy-2-methylpropyl)thiazole-2-carboxamide]
- Kd [1]: 36 nM
- IC50 (full-length human RORγt; Conditions A): 130 nM
- inhibition at 6 µM (full-length human RORγt; Conditions A): 108%

Compound: CC(C)(O)CNC(=O)c1nc(C(=O)N2CCC(F)CC2)c(-c2cnc(NC3CCCC(F)(F)C3)c(C(F)(F)F)c2)s1 (centres unmarked) [Example 13, 5-(6-((3,3-Difluorocyclohexyl)amino)-5-(trifluoromethyl)pyridin-3-yl)-4-(4-fluoropiperidine-1-carbonyl)-N-(2-hydroxy-2-methylpropyl)thiazole-2-carboxamide]
- Kd [1]: 37 nM
- RORγt (FL) Reporter Assay A, % inhibition (value marked **) (full-length human RORγt; Conditions A): 99** %
- IC50 (full-length human RORγt; Conditions A): 100 nM
